The results in this text go back to ChEMBL document CHEMBL3886833, “Therapeutic prostaglandin receptor agonists” (2016).

The target of test [1] is T1, Prostaglandin E2 receptor EP2 subtype (Homo sapiens, UniProt P43116). The experiment in a line: cAMP Assay: A 384-well drug plate was prepared to contain test compounds, PGE2 and cAMP in 16 serial dilutions in triplicate, using a Biomek station. HEK-EBNA cells expressing a target PG receptor subtype (EP2 or EP4) were suspended in a stimulation buffer (HBSS, 0.1% BSA, 0.5 mM IBMX and 5 mM HEPES, pH 7.4) in a density of 10^4 cells/5 μl. The reaction was initiated by mixing 5 μL drug dilutions with 5 μl of HEK-EBNA cells in a well, carried out for 30 min at room temperature, and followed by the addition of 5 μl anti-cAMP acceptor beads in the control buffer with Tween-20 (25 mM NaCl, 0.03% Tween-20, 5 mM HEPES, pH7.4). After 30 min in the dark at room temperature, the mixtures were incubated with 15 μl biotinylated-cAMP/strpavidin donor beads in Lysis/Detection buffer (0.1% BSA, 0.3% Tween-20 and 5 mM HEPES, pH7.4) for 45 min at the room temperature. Fluorescence changes were read using a Fusion-alpha HT microplate reader. The format is functional, cell-based, 104.

For test [2], the target named is T1, Prostaglandin E2 receptor EP2 subtype. In words: Radioligand Binding Assay: The cell homogenate was centrifuged at 19000 r.p.m. for 20 min at 4° C. using a Beckman Ti-60 rotor. The resultant pellet was resuspended in TME buffer to give a final 1 mg/ml protein concentration, as determined by Biorad assay. Radioligand binding competition assays vs. [3H-]17-phenyl PGF2a , (5 nM) were performed in a 100 μl volume for 60 min. Binding reactions were started by adding plasma membrane fraction. The reaction was terminated by the addition of 4 ml ice-cold TRIS-HCl buffer and rapid filtration through glass fiber GF/B filters using a Brandel cell harvester. The filters were washed 3 times with ice-cold buffer and oven dried for one hour. [3H-] PGE2 (specific activity 180 Ci mmol) was used as the radioligand for EP receptors. [3H] 17-phenyl PGF2a, was employed for FP receptor binding studies. Binding studies employing EP1, EP2, EP4 and FP receptors were performed in duplicate in at least three separate experiments. A 200 μl assay volume was used. Incubations w. The format is cell-free.

The target of a further test is T2, Thromboxane A2 receptor (Homo sapiens, UniProt P21731).
T2 sequence (P21731 whole entry): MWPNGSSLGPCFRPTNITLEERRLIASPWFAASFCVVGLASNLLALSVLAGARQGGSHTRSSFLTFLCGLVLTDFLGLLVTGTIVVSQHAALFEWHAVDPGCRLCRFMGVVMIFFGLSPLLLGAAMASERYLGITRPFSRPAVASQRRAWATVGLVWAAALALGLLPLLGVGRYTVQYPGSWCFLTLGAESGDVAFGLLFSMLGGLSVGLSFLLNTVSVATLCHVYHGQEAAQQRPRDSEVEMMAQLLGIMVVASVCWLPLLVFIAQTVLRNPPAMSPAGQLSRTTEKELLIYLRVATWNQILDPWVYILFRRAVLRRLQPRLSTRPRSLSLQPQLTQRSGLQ
The experiment in a line: FLIPR Assay: Calciium Signal Studies of the Flipr. Cells were seeded at a density of 5×10^4 cells per well in Biocoati® Poly-D-lysine-coated black-wall, clear-bottom 96-well plates (Becton-Dickinson) and allowed to attach overnight in an incubator at 37° C. Cells were then washed two times with HBSS-HEPES buffer (Hanks Balanced Salt Solution without bicarbonate and phenol red, 20 mM HEPES, pH 7.4) using a Denley Cellwash plate washer (Labsystems). After 45 minutes of dye-loading in the dark, using the calcium-sensitive dye Fluo-4 AM at a final concentration of 2 μM, plates were washed four times with HBSS-HEPES buffer to remove excess dye leaving 100 μl in each well. Plates were re-equilibrated to 37° C. for a few minutes. Cells were excited with an Argon laser at 488 nm, and emission was measured through a 510-570 nm bandwidth emission filter (FLIPR, Molecular Devices, Sunnyvale, Calif.). Drug solution was added in a 50 μl volume to each well to give the desired final concentration. The format is functional.

T1 sequence (P43116 whole entry): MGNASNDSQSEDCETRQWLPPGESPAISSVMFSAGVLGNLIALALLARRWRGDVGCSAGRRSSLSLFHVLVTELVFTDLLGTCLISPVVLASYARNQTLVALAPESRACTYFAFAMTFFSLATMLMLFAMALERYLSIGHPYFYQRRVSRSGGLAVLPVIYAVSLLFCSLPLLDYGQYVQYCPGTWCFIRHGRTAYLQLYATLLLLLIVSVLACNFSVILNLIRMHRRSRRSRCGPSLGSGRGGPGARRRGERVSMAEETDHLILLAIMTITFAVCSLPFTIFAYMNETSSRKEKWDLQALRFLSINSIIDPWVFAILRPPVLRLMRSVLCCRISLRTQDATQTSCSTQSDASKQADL

Regarding `O=C(O)c1ccc(CC[C@H]2C(=O)CC[C@@H]2/C=C/C(O)Cc2cccc(Br)c2)cc1` (single isomer, unassigned), the EC50 (commonly the concentration needed to bring the measured effect to its halfway point) in test [1] came out at 8 nM; on Thromboxane A2 receptor, 100 nM. Further, the inhibition constant (Ki) (as a rule, the dissociation constant of the complex between target and ligand, obtained from inhibition or displacement) in test [2] turned out to be 1170 nM.
